Calls of active or inactive are those of the source.
Columns and labels:
[1] = biological target: T1, RNA-binding protein pos-1 (Caenorhabditis elegans, UniProt G5EF15); experiment: disruptors of C. elegans POS-1 RNA interaction – biochemical, fluorescence polarization, dose response (AID 1964);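 further: purified POS-1 fused to maltose binding protein made in E. coli; potency of compounds blocking POS-1 binding to fluorescent RNA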
T1 sequence (G5EF15 whole entry): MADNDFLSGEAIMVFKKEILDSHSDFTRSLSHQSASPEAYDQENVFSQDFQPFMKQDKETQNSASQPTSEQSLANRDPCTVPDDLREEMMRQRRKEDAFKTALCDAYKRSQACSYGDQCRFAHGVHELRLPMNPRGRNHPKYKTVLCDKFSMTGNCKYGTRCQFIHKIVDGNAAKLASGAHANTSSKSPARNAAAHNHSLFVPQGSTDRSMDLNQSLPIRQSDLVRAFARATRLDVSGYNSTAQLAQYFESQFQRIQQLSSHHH

[2] = biological target: T2, Zinc finger protein mex-5 (Caenorhabditis elegans, UniProt Q9XUB2); experiment: potency of MEX-5 RNA-binding blockers – biochemical, C. elegans, fluorescence polarization, dose response (AID 1960)
T2 sequence (Q9XUB2 whole entry): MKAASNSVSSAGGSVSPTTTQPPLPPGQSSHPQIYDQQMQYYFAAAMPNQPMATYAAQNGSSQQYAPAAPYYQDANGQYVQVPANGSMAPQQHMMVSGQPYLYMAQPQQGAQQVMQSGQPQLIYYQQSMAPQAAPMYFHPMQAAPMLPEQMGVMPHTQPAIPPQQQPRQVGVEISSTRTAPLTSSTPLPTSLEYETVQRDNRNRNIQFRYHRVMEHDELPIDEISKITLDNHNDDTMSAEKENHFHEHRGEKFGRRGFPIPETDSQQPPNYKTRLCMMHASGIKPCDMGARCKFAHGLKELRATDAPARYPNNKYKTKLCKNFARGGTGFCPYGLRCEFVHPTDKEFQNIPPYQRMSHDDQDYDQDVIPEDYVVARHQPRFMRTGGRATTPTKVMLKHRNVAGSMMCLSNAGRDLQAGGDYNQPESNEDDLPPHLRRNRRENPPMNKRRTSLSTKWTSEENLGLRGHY

[3] = Trypanosoma cruzi growth suppression in host cells – NIH3T3 host cells, beta-gal luminescence, confirmation (AID 2044); format: functional, cell-based;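 further: intracellular parasites grown in NIH/3T3 mouse fibroblasts as host cells; luminescent beta-galactosidase reporter signal from transgenic T. cruzi replicating inside host cells; inhibitors lower the luminescence signal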
[4] = viability of PTEN-deleted HCT116 cells – cell-based, HCT116 PTEN knockout, dose response (AID 1047); format: functional;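 further: HCT116 colon tumor cells with PTEN knocked out; cells exposed to compound for 60 hours before readout; potency for loss of cell viability measured by luminescence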
[5] = NIH3T3 cell viability loss – ATP luminescence, mouse fibroblasts, counter-screen, dose response (AID 2010); format: functional, cell-based;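 further: cells exposed to compound for about 90 hours before reading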
[6] = viability of HCT116 lacking mutant beta-catenin – cell-based, human colon tumor, dose response (AID 1045); format: functional;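 further: HCT116 colon tumor cells with beta catenin knocked out; cells exposed to compound for 60 hours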
[7] = biological target: T3, Heat shock factor protein 1 (Mus musculus, UniProt P38532); experiment: enhancement of HSF1-driven luciferase signal – cell-based, NIH3T3, luminescence, dose retest, confirmation (AID 435004); format: functional;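 further: stress induced by proteasome inhibitor MG132 added 30 min after compound; luciferase reporter driven by HSF1 response element in NIH3T3 cells; actives raise luminescence as potentiators of the MG132 stress response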
T3 sequence (P38532 whole entry): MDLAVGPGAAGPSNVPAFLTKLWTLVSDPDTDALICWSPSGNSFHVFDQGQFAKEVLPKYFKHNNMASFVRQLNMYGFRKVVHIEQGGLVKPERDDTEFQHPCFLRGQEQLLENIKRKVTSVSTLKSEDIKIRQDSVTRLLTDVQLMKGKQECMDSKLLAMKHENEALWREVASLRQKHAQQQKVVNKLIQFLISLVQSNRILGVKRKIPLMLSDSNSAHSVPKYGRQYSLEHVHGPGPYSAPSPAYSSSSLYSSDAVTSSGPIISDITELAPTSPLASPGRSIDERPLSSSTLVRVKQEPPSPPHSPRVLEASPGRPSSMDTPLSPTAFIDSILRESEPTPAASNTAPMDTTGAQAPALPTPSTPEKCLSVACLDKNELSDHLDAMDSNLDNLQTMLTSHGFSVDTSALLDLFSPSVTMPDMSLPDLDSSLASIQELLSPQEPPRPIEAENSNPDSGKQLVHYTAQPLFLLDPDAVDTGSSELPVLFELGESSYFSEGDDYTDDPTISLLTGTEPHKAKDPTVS

[8] = biological target: T4, Replicative DNA helicase DnaB (Mycobacterium tuberculosis, UniProt P9WMR3); experiment: DnaB intein splicing inhibitors, dose response, biochemical, cell-free fluorescence (AID 449749); format: functional
T4 sequence (P9WMR3 whole entry): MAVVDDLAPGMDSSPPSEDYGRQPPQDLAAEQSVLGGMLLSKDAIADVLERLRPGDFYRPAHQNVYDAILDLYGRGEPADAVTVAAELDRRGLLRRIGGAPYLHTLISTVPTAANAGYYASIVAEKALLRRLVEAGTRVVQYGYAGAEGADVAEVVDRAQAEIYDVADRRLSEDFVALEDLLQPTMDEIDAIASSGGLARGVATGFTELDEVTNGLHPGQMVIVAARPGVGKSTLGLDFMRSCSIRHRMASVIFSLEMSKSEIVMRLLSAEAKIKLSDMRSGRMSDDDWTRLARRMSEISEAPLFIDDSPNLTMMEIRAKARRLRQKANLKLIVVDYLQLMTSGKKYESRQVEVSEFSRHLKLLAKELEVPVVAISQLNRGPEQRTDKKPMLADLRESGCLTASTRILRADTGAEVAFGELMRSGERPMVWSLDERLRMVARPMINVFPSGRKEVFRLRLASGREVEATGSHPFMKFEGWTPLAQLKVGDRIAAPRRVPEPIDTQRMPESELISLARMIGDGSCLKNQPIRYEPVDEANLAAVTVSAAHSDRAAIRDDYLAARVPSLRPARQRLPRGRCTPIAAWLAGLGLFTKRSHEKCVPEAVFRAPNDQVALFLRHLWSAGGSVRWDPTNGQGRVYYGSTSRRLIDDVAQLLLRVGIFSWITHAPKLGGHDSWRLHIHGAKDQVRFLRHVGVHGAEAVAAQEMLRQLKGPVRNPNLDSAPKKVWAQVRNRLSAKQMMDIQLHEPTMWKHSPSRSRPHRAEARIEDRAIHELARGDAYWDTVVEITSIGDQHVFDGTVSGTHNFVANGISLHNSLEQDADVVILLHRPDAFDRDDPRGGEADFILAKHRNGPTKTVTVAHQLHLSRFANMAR

[9] = biological target: T5, Protein RecA (Mycobacterium tuberculosis, UniProt P9WHJ3); experiment: Fluorescence Cell-Free Homogeneous Dose Retest to Identify Inhibitors of RecA-Intein Splicing Activity. [Related pubchem assays (depositor defined):AID2097, AID2223, AID489010, AID492950]; format: functional
T5 sequence (P9WHJ3 whole entry): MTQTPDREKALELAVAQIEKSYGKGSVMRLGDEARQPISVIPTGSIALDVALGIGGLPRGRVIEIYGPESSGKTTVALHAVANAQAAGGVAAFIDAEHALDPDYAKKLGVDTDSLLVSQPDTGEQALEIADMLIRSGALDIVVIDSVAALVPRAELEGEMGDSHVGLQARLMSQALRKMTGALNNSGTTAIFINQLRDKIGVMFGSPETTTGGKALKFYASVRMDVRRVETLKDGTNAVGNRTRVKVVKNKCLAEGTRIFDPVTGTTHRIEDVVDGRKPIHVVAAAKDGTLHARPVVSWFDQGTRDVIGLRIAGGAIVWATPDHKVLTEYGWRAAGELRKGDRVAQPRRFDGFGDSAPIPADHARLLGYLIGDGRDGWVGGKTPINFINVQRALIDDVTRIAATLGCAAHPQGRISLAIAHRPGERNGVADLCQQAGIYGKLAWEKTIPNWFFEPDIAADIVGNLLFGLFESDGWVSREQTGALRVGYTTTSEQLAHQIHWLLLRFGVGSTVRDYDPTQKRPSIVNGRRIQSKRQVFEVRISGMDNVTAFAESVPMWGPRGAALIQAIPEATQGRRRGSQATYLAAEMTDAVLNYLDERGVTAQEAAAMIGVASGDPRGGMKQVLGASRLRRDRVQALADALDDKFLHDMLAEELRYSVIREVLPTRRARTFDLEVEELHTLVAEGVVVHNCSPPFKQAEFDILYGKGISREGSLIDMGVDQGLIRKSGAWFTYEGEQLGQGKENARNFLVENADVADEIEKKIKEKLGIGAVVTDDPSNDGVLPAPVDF

[10] = biological target: Cytochrome P450 2C19 (Homo sapiens, UniProt P33261); experiment: Cytochrome panel assay with activity outcomes. Panel member name: p450-cyp2c19 Compounds with AC50 equal or less than 10 uM are considered active; format: functional; settings: read-out: AC50
[11] = Luminescence Cell-Based Dose Retest to Confirm Inhibitors of Cancer Stem Cells. [Related pubchem assays (depositor defined):AID2717, AID2721]; format: functional; settings: Homo sapiens
[12] = biological target: Cytochrome P450 2D6 (Homo sapiens, UniProt P10635);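 further: CYP2D6 member of a cytochrome P450 panel assay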
[13] = biological target: T6, Cytochrome P450 1A2 (Homo sapiens, UniProt P05177);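 further: PubChem cytochrome P450 panel assay, CYP1A2 panel member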
T6 sequence (P05177 whole entry): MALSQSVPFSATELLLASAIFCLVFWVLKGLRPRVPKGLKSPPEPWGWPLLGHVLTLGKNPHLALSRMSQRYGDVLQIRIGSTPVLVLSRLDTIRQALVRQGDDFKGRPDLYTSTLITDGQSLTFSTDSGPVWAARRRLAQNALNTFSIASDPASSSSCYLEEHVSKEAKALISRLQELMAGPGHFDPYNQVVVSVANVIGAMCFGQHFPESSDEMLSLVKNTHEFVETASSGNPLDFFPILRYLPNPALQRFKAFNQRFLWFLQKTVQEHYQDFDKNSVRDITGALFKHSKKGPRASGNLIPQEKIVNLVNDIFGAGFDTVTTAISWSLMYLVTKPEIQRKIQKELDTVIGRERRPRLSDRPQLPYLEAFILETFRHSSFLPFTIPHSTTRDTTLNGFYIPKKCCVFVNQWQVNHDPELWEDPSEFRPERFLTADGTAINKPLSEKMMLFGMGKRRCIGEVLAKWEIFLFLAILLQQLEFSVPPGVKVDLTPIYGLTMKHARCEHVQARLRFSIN

[14] = biological target: T7, Corticotropin-releasing factor receptor 2/Corticotropin-releasing factor-binding protein (Homo sapiens, UniProt P24387+Q13324); experiment: activators of CRF receptor 2 with binding protein – uHTS hits, confirmation (AID 602473); format: functional; settings: read-out: EC50_Mean
T7 sequence (Q13324 whole entry): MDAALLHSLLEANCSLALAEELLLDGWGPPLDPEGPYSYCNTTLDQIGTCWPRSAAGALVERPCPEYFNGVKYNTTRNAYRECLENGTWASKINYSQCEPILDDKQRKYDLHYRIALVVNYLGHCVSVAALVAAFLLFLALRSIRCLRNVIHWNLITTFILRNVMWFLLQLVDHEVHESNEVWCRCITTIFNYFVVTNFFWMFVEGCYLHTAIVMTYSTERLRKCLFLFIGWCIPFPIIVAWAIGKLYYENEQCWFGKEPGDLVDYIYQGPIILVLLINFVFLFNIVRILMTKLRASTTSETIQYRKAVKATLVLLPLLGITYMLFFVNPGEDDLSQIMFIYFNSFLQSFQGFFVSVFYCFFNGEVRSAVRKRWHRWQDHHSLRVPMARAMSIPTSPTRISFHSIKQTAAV
T7 sequence (P24387 whole entry): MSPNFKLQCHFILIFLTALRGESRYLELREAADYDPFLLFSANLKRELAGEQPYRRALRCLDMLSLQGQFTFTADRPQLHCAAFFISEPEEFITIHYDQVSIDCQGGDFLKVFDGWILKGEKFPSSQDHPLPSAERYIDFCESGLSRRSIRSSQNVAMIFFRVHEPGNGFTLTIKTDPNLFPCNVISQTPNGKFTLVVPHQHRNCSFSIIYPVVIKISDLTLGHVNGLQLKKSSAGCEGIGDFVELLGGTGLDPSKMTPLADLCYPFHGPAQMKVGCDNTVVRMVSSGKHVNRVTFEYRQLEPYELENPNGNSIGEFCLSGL

Cytochrome P450 2D6, sequence (P10635 whole entry): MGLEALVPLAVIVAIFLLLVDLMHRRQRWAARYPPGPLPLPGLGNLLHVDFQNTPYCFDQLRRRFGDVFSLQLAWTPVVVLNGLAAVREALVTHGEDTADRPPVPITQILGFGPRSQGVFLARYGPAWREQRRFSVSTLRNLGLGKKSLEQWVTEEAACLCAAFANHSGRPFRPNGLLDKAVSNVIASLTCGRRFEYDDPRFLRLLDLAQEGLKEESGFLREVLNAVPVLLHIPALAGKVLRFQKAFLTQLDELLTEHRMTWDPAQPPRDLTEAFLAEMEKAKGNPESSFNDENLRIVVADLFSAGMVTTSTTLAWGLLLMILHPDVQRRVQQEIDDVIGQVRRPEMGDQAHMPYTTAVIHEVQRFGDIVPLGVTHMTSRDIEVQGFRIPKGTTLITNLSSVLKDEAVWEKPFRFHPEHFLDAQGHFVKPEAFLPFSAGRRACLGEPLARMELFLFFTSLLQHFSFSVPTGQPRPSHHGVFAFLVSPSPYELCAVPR
Cytochrome P450 2C19, sequence (P33261 whole entry): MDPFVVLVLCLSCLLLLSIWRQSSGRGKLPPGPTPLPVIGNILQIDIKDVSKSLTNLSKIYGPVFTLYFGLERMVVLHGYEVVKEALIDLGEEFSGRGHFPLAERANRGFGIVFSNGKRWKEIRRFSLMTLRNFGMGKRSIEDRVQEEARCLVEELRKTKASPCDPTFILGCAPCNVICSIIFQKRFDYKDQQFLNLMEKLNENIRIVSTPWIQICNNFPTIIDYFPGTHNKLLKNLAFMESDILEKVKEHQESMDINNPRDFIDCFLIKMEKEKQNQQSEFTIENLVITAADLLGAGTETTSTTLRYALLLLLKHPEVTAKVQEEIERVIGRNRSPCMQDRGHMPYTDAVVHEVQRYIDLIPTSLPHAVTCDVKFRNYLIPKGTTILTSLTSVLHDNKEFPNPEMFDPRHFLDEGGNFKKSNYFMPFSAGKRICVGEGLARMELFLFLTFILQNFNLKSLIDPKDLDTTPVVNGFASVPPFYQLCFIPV

In the case of `COC(=O)C1=C(C)N(c2ccccc2)/C(=C/c2ccco2)C1=O`, the EC50 [1] is reported as 99 µM (active) and the EC50 [2] is reported as 5.06 µM (active).

For `Cc1c(C(=O)O)cccc1-n1c(C)cc(/C=N/NC(=O)c2cc3ccccc3o2)c1C`, the EC50 [1] was > 300 µM (not active) and the EC50 [2] was > 300 µM (not active).

In the case of `Cc1ccc(-c2nc(NC(=O)c3ccc(S(=O)(=O)N(CCC#N)CCC#N)cc3)sc2-c2ccccc2)cc1`, the EC50 [3] is reported as 2.02 µM (active), the EC50 [4] is reported as 17 µM (active) and the EC50 [5] is reported as > 60 µM (not active). The EC50 [6] was 17.3 µM (active).

For `Cc1nnc(S/C(=C/c2ccc(-c3cc(Cl)ccc3C)o2)C(=O)O)[nH]1`, the EC50 [1] was 38.4 µM (active) and the EC50 [2] was 31 µM (active).

For `O=C(NCc1ccccc1)C1Nc2ccc(OC(F)(F)F)cc2C2C=CCC12` (configuration not stated), the EC50 [1] was > 300 µM (not active) and the EC50 [2] was > 300 µM (not active).

In the case of `CCOC(=O)C1=C(N)Oc2c(c(O)nc3ccccc23)C1c1ccccc1` (configuration not stated), the EC50 [4] is reported as 53.5 µM (active) and the EC50 [6] is reported as 94.3 µM (active).

For `COc1cccc(-n2nc(C#N)c(Cl)cc2=O)c1`, the EC50 [7] was 10.7 µM (active), the AC50 [8] was 2.49 µM (active) and the EC50 [9] was 4.38 µM (active).

In the case of `CC1=CC(C)(C)N2C(=O)C3(C(C#N)=C(N)OC4=C3C(=O)CC(C)(C)C4)c3cccc1c32` (configuration not stated), the EC50 [1] is reported as > 300 µM (not active) and the EC50 [2] is reported as > 300 µM (not active).

With `FC(F)(F)c1nnc(-c2ccccc2)nc1Sc1ccccc1` the EC50 [4] was 18.7 µM (active), the EC50 [6] was 17.3 µM (active) and the EC50 [7] was 4.22 µM (inconclusive). For the same compound, the AC50 [10] was 0.00355 µM (inconclusive), the AC50 [8] was 19.3 µM (active) and the EC50 [9] was 9.56 µM (active).

In the case of `Clc1ccc(CO/N=C/c2c(-c3ccccc3)nc3n2CCS3)c(Cl)c1`, the AC50 [11] is reported as 2.22 µM (active) and the EC50 [7] is reported as > 260 µM (inactive).

With `O=P(Nc1ccccc1)(Nc1ccccc1)Oc1cccc(Cl)c1` the EC50 [4] was 134 µM (active), the EC50 [6] was 239 µM (active) and the AC50 [12] was 15.8 µM (inconclusive). For the same compound, the AC50 [13] was 15.8 µM (inconclusive).

For `CCOC(=O)C1=NN(C(=O)c2ccccc2)C(O)(c2ccc(C)cc2)C1` (configuration not stated), the EC50 [7] was > 260 µM (inactive) and the EC50 [14] was 13.5 µM (active).

With `CN(C)c1ccc(N/C=C2/C(=O)NC(=O)N(CCC3=CCCCC3)C2=O)cc1` the EC50 [1] was > 300 µM (not active) and the EC50 [2] was > 300 µM (not active).

In the case of `CCOC(=O)c1nn(-c2ccc(C)cc2)c2nc(Nc3ccccc3)cc(=O)n12`, the EC50 [1] is reported as 78.2 µM (active) and the EC50 [2] is reported as > 300 µM (not active).

Source: ChEMBL document CHEMBL1201862, “PubChem BioAssay data set” (2004)
